Laboratory results reported in patent publication US4382939A, “3-[2-(Mono-and dialkylamino)propyl]-1,2,3,4-tetrahydro-5H-[1]benzopyrano[3,4-C]pyridin- 5-ones useful for treating bronchospastic diseases” (Warner Lambert Company, priority 1982, dated 1983).
Counter-ions that a name gives are not always drawn.

system: collapse on exposure to an aerosol of methacholine; assay: Anticholinergic test: prolongation of collapse time in conscious guinea pigs exposed to an aerosol of methacholine; format: in vivo; settings: guinea pig, 25 mg/kg intraperitoneally; 10 minutes methacholine aerosol; Control 1.9 to 2.0
Method: The compounds of the invention display anticholinergic properties when tested by the following procedure: Conscious guinea pigs, six at a time, are put into a sealed chamber and exposed for 10 minutes to an aerosol of methacholine. Untreated animals or those treated with vehicle will collapse in 1.9±0.1 minutes. Groups of animals are injected intraperitoneally with 25 mg/kg of test compound and exposed in the chamber under the same conditions. Compounds which prolong the collapse time past that of the control animals are considered active.

Compound | (Minutes Protection)
CNC(C)CN1CCc2c(c(=O)oc3cc(C)c(NC(C)=O)cc23)C1 (stereo not shown) [AcNH Me H Me H, N-[1,3,4,5-Tetrahydro-8-methyl-3-[2-(methylamino)propyl]-5-oxo-2H-[1]benzopyrano[3,4-c]pyridin-9-yl]acetamide] | 10.0 min
CCN(CC)C(C)CN1CCc2c(c(=O)oc3cc(C)c(Cl)cc23)C1 (stereo not shown) [Cl Me H Et Et, 9-Chloro-3-[2-(diethylamino)propyl]-1,2,3,4-tetrahydro-8-methyl-5H-[1]benzopyrano[3,4-c]pyridin-5-one] | 3.4 min
CCNC(C)CN1CCc2c(c(=O)oc3cc(C)c(Cl)cc23)C1 (stereo not shown) [Cl Me H Et H, 9-Chloro-3-[2-(ethylamino)propyl]-1,2,3,4-tetrahydro-8-methyl-5H-[1]benzopyrano[3,4-c]pyridin-5-one] | 3.1 min
CCOc1cc2oc(=O)c3c(c2cc1OCC)CCN(CC(C)N(CC)CC)C3.Cl.Cl (stereo not shown) [EtO EtO H Et Et, 3-[2-(Diethylamino)propyl]-1,2,3,4-tetrahydro-8,9-diethoxy-5H-[1]benzopyrano[3,4-c]pyridin-5-one dihydrochloride] | 10.0 min
CCOc1cc2oc(=O)c3c(c2cc1OCC)CCN(CC(C)N(C)C)C3.Cl.Cl (stereo not shown) [EtO EtO H Me Me, 3-[2-(Dimethylamino)propyl]-1,2,3,4-tetrahydro-8,9-diethoxy-5H-[1]benzopyrano[3,4-c]pyridin-5-one dihydrochloride] | 7.3 min
CC(CN1CCc2c(c(=O)oc3c2ccc2ccccc23)C1)N(C)C (stereo not shown) [H CHCHCHCH Me Me, 2-[2-(Dimethylamino)propyl]-1,2,3,4-tetrahydro-12H-naphtho-[2',1':5,6]pyrano[3,4-c]pyridin-12-one dihydrochlorine] | 5.9 min
CCCN(CC)C(C)CN1CCc2c(c(=O)oc3ccccc23)C1 (stereo not shown) [H H H Et Pr, 3-[2-(Ethylpropylamino)propyl]-1,2,3,4-tetrahydro-5H-[1]benzopyrano[3,4-c]pyridin-5-one] | 6.4 min
CCNC(C)CN1CCc2c(c(=O)oc3cc(C)ccc23)C1 (stereo not shown) [H Me H Et H, 3-[2-(Ethylamine)propyl]-1,2,3,4-tetrahydro-8-methyl-5H-[1]benzopyrano[3,4-c]pyridin-5-one] | 10.0 min
CCCN(CC)C(C)CN1CCc2c(c(=O)oc3cc(C)ccc23)C1 (stereo not shown) [H Me H Et n-Pr, 3-[2-(Ethylpropylamino)propyl]-1,2,3,4-tetrahydro-8-methyl-5H-[1]benzopyrano[3,4-c]pyridin-5-one] | 7.6 min
CNC(C)CN1CCc2c(c(=O)oc3cc(C)ccc23)C1 (stereo not shown) [H Me H Me H, 1,2,3,4-Tetrahydro-8-methyl-3-[2-(methylamine)propyl]-5H-[1]-benzopyrano[3,4-c]pyridin-5-one] | 2.1 min
CCCCN(C)C(C)CN1CCc2c(c(=O)oc3cc(C)ccc23)C1 (stereo not shown) [H Me H Me n-Bu, 3-[2-(Butylmethylamino)propyl]-1,2,3,4-tetrahydro-8-methyl-5H-[1]benzopyrano[3,4-c]pyridin-5-one] | 7.8 min
CCCN(C)C(C)CN1CCc2c(c(=O)oc3cc(C)ccc23)C1 (stereo not shown) [H Me H Me n-Pr, 1,2,3,4-Tetrahydro-8-methyl-3-[2-(methylpropylamino)propyl]-5H-[1]benzopyrano[3,4-c]pyridin-5-one] | 5.4 min
CCN(CC)C(C)CN1CCc2c(c(=O)oc3cc(OC)ccc23)C1 (stereo not shown) [H MeO H Et Et, 3-[2-(Diethylamino)propyl]-1,2,3,4-tetrahydro-8-methoxy-5H-[1]benzopyrano[3,4-c]pyridin-5-one] | 10.0 min
CCNC(C)CN1CCc2c(c(=O)oc3cc(OC)ccc23)C1 (stereo not shown) [H MeO H Et H, 3-[2-(Ethylamino)propyl]-1,2,3,4-tetrahydro-8-methoxy-5H-[1]benzopyrano[3,4-c]pyridin-5-one] | 7.5 min
CCCN(CC)C(C)CN1CCc2c(c(=O)oc3cc(OC)ccc23)C1 (stereo not shown) [H MeO H Et n-Pr, 3-[2-(Ethylpropylamino)propyl]-1,2,3,4-tetrahydro-8-methoxy-5H-[1]benzopyrano[3,4-c]pyridin-5-one] | 10.0 min
CCN(C)C(C)CN1CCc2c(c(=O)oc3cc(OC)ccc23)C1 (stereo not shown) [H MeO H Me Et, 3-[2-(Ethylmethylamino)propyl]-1,2,3,4-tetrahydro-8-methoxy-5H-[1]benzopyrano[3,4-c]pyridin-5-one] | 9.1 min

Compound | (Minutes Protection)
CNC(C)CN1CCc2c(c(=O)oc3cc(OC)ccc23)C1 (stereo not shown) [H MeO H Me H, 1,2,3,4-Tetrahydro-8-methoxy-3-[2-(methylamino)propyl]-5H-[1]benzopyrano[3,4-c]pyridin-5-one] | 8.6 min
COc1ccc2c3c(c(=O)oc2c1)CN(CC(C)N(C)C)CC3.Cl.Cl (stereo not shown) [H MeO H Me Me, 3-[2-(Dimethylamino)propyl]-1,2,3,4-tetrahydro-8-methoxy-5H-[1]benzopyrano[3,4-c]pyridin-5-one dihydrochloride] | 10.0 min
CCCCN(C)C(C)CN1CCc2c(c(=O)oc3cc(OC)ccc23)C1 (stereo not shown) [H MeO H Me n-Bu] | 8.6 min
CCCN(C)C(C)CN1CCc2c(c(=O)oc3cc(OC)ccc23)C1 (stereo not shown) [H MeO H Me n-Pr, 1,2,3,4-Tetrahydro-8-methoxy-3[2-(methylpropylamino)propyl]-5H-[1]benzopyrano[3,4-c]pyridin-5-one] | 10.0 min
CCN(CC)C(C)CN1CCc2c(c(=O)oc3c(OC)c(OC)ccc23)C1 (stereo not shown) [H MeO MeO Et Et, 3-[2-(Diethylamino)propyl]-1,2,3,4-tetrahydro-7,8-dimethoxy-5H-[1]benzopyrano[3,4-c]pyridin-5-one] | 7.6 min
CCNC(C)CN1CCc2c(c(=O)oc3c(OC)c(OC)ccc23)C1 (stereo not shown) [H MeO MeO Et H, 3-[2-(Ethylamino)propyl]-1,2,3,4-tetrahydro-7,8-dimethoxy-5H-[1] benzopyrano[3,4-c]pyridin-5-one] | 9.1 min
CCN(C)C(C)CN1CCc2c(c(=O)oc3c(OC)c(OC)ccc23)C1.Cl.Cl (stereo not shown) [H MeO MeO Me Et, 3-[2-(Ethylmethylamino)propyl]-1,2,3,4-tetrahydro-7,8-dimethoxy-5H-[1]benzopyrano[3,4-c]pyridin-5-one dihydrochloride] | 5.0 min
COc1ccc2c3c(c(=O)oc2c1OC)CN(CC(C)N(C)C)CC3.Cl.Cl (stereo not shown) [H MeO MeO Me Me, 3-[2-(Dimethylamino)propyl]-1,2,3,4-tetrahydro-7,8-dimethoxy-5H-[1]benzopyrano[3,4-c]pyridin-5-one dihydrochloride] | 5.5 min
Cc1cc2oc(=O)c3c(c2cc1C)CCN(CC(C)N(C)C)C3 (stereo not shown) [Me Me H Me Me, 3-[2-(Dimethylamino)propyl]-1,2,3,4-tetrahydro-8,9-dimethyl-5H-[1]benzopyrano[3,4-c]pyridin-5-one] | 4.8 min
CCCCN(CC)C(C)CN1CCc2c(c(=O)oc3cc(OC)c(OC)cc23)C1 (stereo not shown) [MeO MeO H Et Bu, 3-[2-(Butylethylamino)propyl]-1,2,3,4-tetrahydro-8,9-dimethoxy-5H-[1]benzopyrano[3,4-c]pyridin-5-one] | 3.7 min
CCCN(CC)C(C)CN1CCc2c(c(=O)oc3cc(OC)c(OC)cc23)C1 (stereo not shown) [MeO MeO H Et n-Pr, 3-[2-(Ethylpropylamino)propyl]-1,2,3,4-tetrahydro-8,9-dimethoxy-5H-[1]benzopyrano[3,4-c]pyridin-5-one] | 3.7 min
CCN(CC(C)C)C(C)CN1CCc2c(c(=O)oc3cc(OC)c(OC)cc23)C1 (stereo not shown) [MeO MeO H Et s-Bu, 3-[2-[Ethyl(2-methylpropyl)amino]propyl]-1,2,3,4-tetrahydro-8,9-dimethoxy-5H-[1]benzopyrano[3,4-c]pyridin-5-one] | 5.4 min
CCN(C)C(C)CN1CCc2c(c(=O)oc3cc(OC)c(OC)cc23)C1.Cl.Cl (stereo not shown) [MeO MeO H Me Et, 3-[2-(Ethylmethylamino)propyl]-1,2,3,4-tetrahydro-8,9-dimethoxy-5H-[1]benzopyrano[3,4-c]pyridin-5-one dihydrochloride] | 6.0 min
CCCN(C)C(C)CN1CCc2c(c(=O)oc3cc(OC)c(OC)cc23)C1 (stereo not shown) [MeO MeO H Me n-Pr, 1,2,3,4-Tetrahydro-8,9-dimethoxy-3-[2-(methylpropylamino)propyl]-5H-[1]benzopyrano[3,4-c]pyridin-5-one] | 2.5 min
CC(CN1CCc2c(c(=O)oc3cc4c(cc23)OCO4)C1)N(C)C (stereo not shown) [OCH2O H Me Me, 3-[2-(Dimethylamino)propyl]-1,2,3,4-tetrahydro-5H-[1,3]benzodioxolo]5',6':5,6]pyrano[3,4-c]pyridin-5-one dihydrochloride] | 2.3 min

system: salivation (pilocarpine nitrate); assay: Inhibition of pilocarpine-induced salivation in anesthetized dogs; format: in vivo, mongrel dogs; settings: Canis lupus familiaris, iv, cumulative i.v. doses, pilocarpine-induced salivary flow, read-out: ID50 Salivation
Method: (§1) In an additional testing procedure, mongrel dogs of either sex, 10.6 to 15.3 kg, are anesthetized with sodium pentobarbital, 30 mg/kg i.v. and then prepared for the monitoring of pulmonary mechanics. A Buxco pulmonary mechanics computer is used to calculate pulmonary resistance, dynamic compliance, and tidal volume from transpulmonary pressure and flow data. Respiratory rate, heart rate and mean arterial blood pressure are also monitored. The femoral vein is cannulated for the delivery of drugs. Pilocarpine nitrate (0.2 mg/kg/hr) is than infused to induce a bronchospasm and salivary flow. […] Salivary output is collected from a catheterized Wharton's duct at five minute intervals. After salivation has stabilized, 3 control collections are taken at 5 minute intervals followed by a series of cumulative i.v. doses of test compound (1, 3, 10, 30, 100, 300, 1000, 3000, and 10,000 μg/kg) that are injected every 5 minutes for 45 minutes. The percent inhibition of both the bronchospasm and salivation are calculated for each dose with a return to pre-pilocarpine resistance levels or cessation of salivation equal to a 100% inhibition.

Compound | ED50
CCOc1cc2oc(=O)c3c(c2cc1OCC)CCN(CC(C)N(C)C)C3.Cl.Cl (stereo not shown) [EtO EtO H Me Me, 3-[2-(Dimethylamino)propyl]-1,2,3,4-tetrahydro-8,9-diethoxy-5H-[1]benzopyrano[3,4-c]pyridin-5-one dihydrochloride] | 0.303 mg/kg

system: bronchospasm (pilocarpine nitrate); assay: Inhibition of pilocarpine-induced bronchospasm in anesthetized dogs (pulmonary mechanics); format: in vivo, mongrel dogs; settings: Canis lupus familiaris, iv; anesthetized dogs, cumulative i.v. doses, pilocarpine-induced bronchospasm; read-out: ID50 Bronchospasm
Method: as §1

Compound | ED50
CCOc1cc2oc(=O)c3c(c2cc1OCC)CCN(CC(C)N(C)C)C3.Cl.Cl (stereo not shown) [EtO EtO H Me Me, 3-[2-(Dimethylamino)propyl]-1,2,3,4-tetrahydro-8,9-diethoxy-5H-[1]benzopyrano[3,4-c]pyridin-5-one dihydrochloride] | 0.147 mg/kg

same assay, conditions: dogs, i.v.; >1 indicates more potent as a bronchodilator than as an antisecretory agent

Compound | Pulmonary Selectivity*
CCOc1cc2oc(=O)c3c(c2cc1OCC)CCN(CC(C)N(C)C)C3.Cl.Cl (stereo not shown) [EtO EtO H Me Me, 3-[2-(Dimethylamino)propyl]-1,2,3,4-tetrahydro-8,9-diethoxy-5H-[1]benzopyrano[3,4-c]pyridin-5-one dihydrochloride] | 2.1
